Values of other authors in PMC12676331 (ACS Omega, 2025).

How the values were obtained:
rod opsin mutants = conditions: in vitro; ref number not given
[1] = test system: T17M Rho mouse model of RP; conditions: ref number not given
G-protein = conditions: in vitro and in vivo; ref number not given
P23H rod opsin = conditions: ref number not given

Row | Compound | folding and membrane trafficking of rod opsin mutants (rod opsin mutants) | photoreceptor survival [1] | G-protein activation (G-protein) | maturation and membrane expression of P23H rod opsin (P23H rod opsin)
1 | CC1=C(/C=C/C(=O)N2CCN(C(N)=O)CC2)C(C)(C)CCC1 [SRD005825] | promoted proper folding and membrane trafficking | improved photoreceptor survival |  | 
2 | 11-cis-7-membered-ring-retinal |  |  | does not activate G-protein | improve the maturation and membrane expression of P23H rod opsin
3 | 11-cis-6-membered-ring-retinal |  |  | can partially activate G-protein | 
4 | CC(=C/C(=O)O)/C=C/C=C(\C)C1C=C2C(C)(C)CCCC2(C)O1 (stereo not drawn) [13-cis-5,8-ERA, 8-epoxy-13-cis-retinoic acid] | promoted proper folding and membrane trafficking |  |  | 
